Laboratory results published in patent US20230181614A1, “ADMINISTRATION OF CITICOLINE TO IMPROVE COGNITIVE PERFORMANCE, ATTENTIONAL PERFORMANCE, AND MOTOR FUNCTION” (KYOWA HAKKO BIO CO., LTD., priority 2014, published 2023).

Assays:
[1] = tested on: Healthy subjects, ages 13-18; test: Pittsburgh Sleep Quality Index (PSQI); type: in vivo, human; settings: for PSQI Score, Mean: V3-V1
Excerpt: Study participants were screened by telephone prior to study enrollment. Healthy subjects, ages 13-18, with no significant medical conditions and no history of co-morbid psychiatric disorder, current Axis I or II diagnosis, or previous participation in a pharmacotherapeutic trial, were selected. Use of any psychotropic medication or any previous head injury resulting in loss of consciousness for 5 or more minutes were used as exclusion criteria. While no participant met criteria for a neuropsychiatric disorder at enrollment, clinical assessments were still completed throughout the study to evaluate changes in mood state. In addition, self-reports of sleep habits, lifestyle, and exercise routines were also administered at baseline as well as at each study visit to assess changes in health habits during study participation. Following the completion of Visit 1 assessment, participants were given their 28-day supply of citicoline (250 mg or 500 mg) or placebo, which was randomly assigned. They were instructed to take one capsule a day every day for the next 28 days. Visit 2 occurred fourteen days after Visit 1. At Visit 2, the remaining study pills were counted and participant dosage calendars were checked to ensure compliance with the protocol. Additional neuropsychological measures and clinical assessments were administered during this visit. Participants returned for Visit 3 fourteen days later, on the 28th day of their study participation. The pill bottle and the dosage calendar were collected from each participant. Urine and blood were again obtained. Participants also participated in similar clinical and neuropsychological testing and clinical measures that were given during visit 1. The PSQI is a self-report sleep questionnaire designed to assess usual sleep habits during the past month. The PSQI was administered at each of the three study visits to assess alterations to sleep quality during the 28 days of study participation.

[2] = tested on: Healthy subjects, ages 13-18; test: Trail Making Test; type: in vivo, human; design: Trail Making B V1 (Mean) / Trail Making B V3 (Mean) / Trail Making B-A V1 (Mean) / Trail Making B-A V3 (Mean) / V3-V1 Trail Making B (Mean) / V3-V1 Trail Making B-A (Mean): unit not given here; settings: for Trail Making A V1 (Mean) / Trail Making B V1 (Mean) / Trail Making B-A V1 (Mean): Visit 1; for Trail Making A V3 (Mean) / Trail Making B V3 (Mean) / Trail Making B-A V3 (Mean): Visit 3; for V3-V1 Trail Making A (Mean) / V3-V1 Trail Making B (Mean) / V3-V1 Trail Making B-A (Mean): visit difference score V3-V1
Excerpt: Study participants were screened by telephone prior to study enrollment. Healthy subjects, ages 13-18, with no significant medical conditions and no history of co-morbid psychiatric disorder, current Axis I or II diagnosis, or previous participation in a pharmacotherapeutic trial, were selected. Use of any psychotropic medication or any previous head injury resulting in loss of consciousness for 5 or more minutes were used as exclusion criteria. While no participant met criteria for a neuropsychiatric disorder at enrollment, clinical assessments were still completed throughout the study to evaluate changes in mood state. In addition, self-reports of sleep habits, lifestyle, and exercise routines were also administered at baseline as well as at each study visit to assess changes in health habits during study participation.
Following the completion of Visit 1 assessment, participants were given their 28-day supply of citicoline (250 mg or 500 mg) or placebo, which was randomly assigned. They were instructed to take one capsule a day every day for the next 28 days.
Visit 2 occurred fourteen days after Visit 1. At Visit 2, the remaining study pills were counted and participant dosage calendars were checked to ensure compliance with the protocol. Additional neuropsychological measures and clinical assessments were administered during this visit.
Participants returned for Visit 3 fourteen days later, on the 28th day of their study participation. The pill bottle and the dosage calendar were collected from each participant. Urine and blood were again obtained. Participants also participated in similar clinical and neuropsychological testing and clinical measures that were given during visit 1.
The Trail Making Test is designed to measure visual conceptual and visuomotor tracking, as well as maintenance of cognitive set. On Trial A the participant must draw lines to connect consecutively numbered circles on one work sheet (1-2-3-4 etc.). For Part B they must connect numbered and lettered circles by alternating between the two sequences (i.e., 1-A-2-B etc.). Part B is the more sensitive of the two tests -- particularly to frontal-lobe dysfunction -- as scores on this section are indicative of the participant’s ability to shift sets (numeric to alphabetical order) and process concurrent stimuli. This test was administered on all three visits.

C[N+](C)(C)CCOP(=O)(O)OP(=O)([O-])OC[C@H]1O[C@@H](n2ccc(N)nc2=O)[C@H](O)[C@@H]1O [citicoline, Cytidine 5′-diphosphocholine]
PSQI, Mean ([1]; 250 mg/day, V1 (baseline)): 3.41 | PSQI, Mean ([1]; 250 mg/day, V3 (day 28)): 2.59 | PSQI Score, Mean ([1]; 250 mg/day): -0.81 | PSQI, Mean ([1]; 500 mg/day, V1 (baseline)): 3.38 | PSQI, Mean ([1]; 500 mg/day, V3 (day 28)): 2.46 | PSQI Score, Mean ([1]; 500 mg/day): -0.92 | Trail Making A V1 (Mean) ([2]; 250 mg/day group): 11.16 | Trail Making B V1 (Mean) ([2]; 250 mg/day group): 29.15 | Trail Making B-A V1 (Mean) ([2]; 250 mg/day group): 17.99 | Trail Making A V3 (Mean) ([2]; 250 mg/day group): 9.37 | Trail Making B V3 (Mean) ([2]; 250 mg/day group): 18.40 | Trail Making B-A V3 (Mean) ([2]; 250 mg/day group): 9.00 | V3-V1 Trail Making A (Mean) ([2]; 250 mg/day group): -1.80 | V3-V1 Trail Making B (Mean) ([2]; 250 mg/day group): -10.75 | V3-V1 Trail Making B-A (Mean) ([2]; 250 mg/day group): -8.99 | Trail Making A V1 (Mean) ([2]; 500 mg/day group): 12.89 | Trail Making B V1 (Mean) ([2]; 500 mg/day group): 28.60 | Trail Making B-A V1 (Mean) ([2]; 500 mg/day group): 15.71 | Trail Making A V3 (Mean) ([2]; 500 mg/day group): 9.28 | Trail Making B V3 (Mean) ([2]; 500 mg/day group): 23.02 | Trail Making B-A V3 (Mean) ([2]; 500 mg/day group): 13.73 | V3-V1 Trail Making A (Mean) ([2]; 500 mg/day group): -3.60 | V3-V1 Trail Making B (Mean) ([2]; 500 mg/day group): -5.58 | V3-V1 Trail Making B-A (Mean) ([2]; 500 mg/day group): -1.98
